Reference: EP1708721B1, “MYOCARDIAL PERFUSION IMAGING USING ADENOSINE RECEPTOR AGONISTS” (Gilead Sciences, Inc., priority 2004, dated 2005)
≈ marks a conversion by molar mass, not a printed value. Like-named read-outs stand apart in the source and are kept apart here.

Tests used:
solubility in water = assay type: physicochemical
Description: CVT-3146 has solubility in water of about 50 micrograms/mL. Therefore, CVT-3146 can be dissolved and administered in water so long as the desired weight amount of CVT-3146 can be administered in an acceptable volume. For example, a preferred dose of about 400 micrograms can be administered in 8 mL of water. If this volume is too great for administration purposes, or if the pharmaceutical composition will be stored at other than room temperature (RT), then additional ingredients can be added to the composition to increase the solubility of CVT-3146 in the composition and/or to provide the resulting pharmaceutical composition with other improved properties such as improved stability and storage properties. Pharmaceutical compositions of this invention may include up to about 1 milligram/mL of CVT-3146. It is preferred that pharmaceutical compositions including CVT-3146 include from 50 to 250 micrograms/mL, and more preferably from 50 to 150 micrograms/mL of CVT-3146.

[1] = half-life of CVT-3146 (background statement); conditions: in vivo; species not stated; read-out: initial half-life
Description: (§1) The purpose of this open label study was to determine the magnitude and duration of effect of CVT-3146 (10-500 µg) on CBFv in humans.

humans = assay: Example 1: open label study, CBFv by Doppler flow wire after IV bolus in catheterization patients; assay type: in vivo
Description: as §1
METHODS: Patients undergoing a clinically indicated coronary catheterization with no more than a 70% stenosis in any coronary artery and no more than a 50% stenosis of the study vessel had CBFv determined by Doppler flow wire. Study subject were selected after measuring baseline and peak CBFv after an intracoronary (IC) injection of 18 µg of Ado. Twenty-three patients, who were identified as meeting the study criteria of having a peak to baseline CBFv ratio of ≥ 2.5 in response to Adenosine, received a rapid (≤ 10 sec) peripheral IV bolus of CVT-3146; Doppler signals were stable and interpretable over the time-course of the increase in CBFv in 17 patients.

healthy volunteers = assay: Example 3: maximum tolerated dose and safety after a single IV bolus, supine and standing; assay type: in vivo
Description: (§2) This Example is a study performed to evaluate (1) the maximum tolerated dose of CVT-3146 and (2) the pharmacokinetic profile of CVT-3146 in healthy volunteers, after a single IV bolus dose.
The study was performed using thirty-six healthy, non-smoking male subjects between the ages of 18 and 59 and within 15% of ideal body weight
The study was performed in phase 1, single center, double-blind, randomized, placebo-controlled, crossover, ascending dose study. Randomization was to CVT-3146 or placebo, in both supine and standing positions.
(§3) CVT-3146 was administered as an IV bolus (20 seconds) in ascending doses of […], 10, 20 and 30 µg/kg.
Subjects received either CVT-3146 or placebo on Day 1 supine, then crossover treatment on Day 2 supine. On Day 3, subjects received CVT-3146 or placebo standing, then crossover treatment on Day 4 standing.
(§4) Patient safety was monitored by ECG, laboratory assessments, and collection of vital signs and adverse events. Pharmacokinetics: • Plasma samples were drawn during supine phase (Days 1 and 2) at 0, 1, 2, 3, 4, 5, 7,10, 15, 20, 30, 45 minutes after dosing and at 1, 1.5., 2, 4, 6, 8,12 and 24 hours after dosing. Urine was collected for 24 hours for […] excretion. Pharmacodynamics: • The study evaluated the relationship of changes in heart rate to dose in both standing and supine positions and plasma concentration in the supine position.

[2] = Example 3: pharmacokinetic profile after a single IV bolus, three-compartment open model; assay type: in vivo, human; conditions: for Vc / Vd / half-life / clearance: Mean (SD); for Vd / half-life / clearance: intravenous; for Vd: read-out: Vss
Description: as §2, §3, §4
A three-compartment open model was fit to the data using observed Tmax (1-4 minutes) as the duration of a zero-order infusion. Reliable parameter estimates were obtained for dose of 1-30 µg/kg. Parameters are summarized in the following (Table 2): Table 2

awake dogs = assay: Example 8: vasodilator effects in different vascular beds of chronically instrumented dogs; assay type: in vivo
Source text: In this study the vasodilator effects of CVT-3146 were compared to those of ADO in different vascular beds in awake dogs. Dogs were chronically instrumented for measurements of the blood flow in coronary (CBF), mesenteric (MBF), hind limb (LBF), and renal (RBF) vascular beds, and hemodynamics.

[3] = severe in intensity, 20 µg/kg Standing, 4 subjects per group

## CNC(=O)c1cnn(-c2nc(N)c3ncn([C@@H]4O[C@H](CO)[C@@H](O)[C@H]4O)c3n2)c1 [CVT-3146, (1-{9-[(4S,2R,3R,5R)-3,4-dihydroxy-5-(hydroxymethyl)oxolan-2-yl]-6-aminopurin-2-yl}pyrazol-4-yl)-N-methylcarboxamide]
Solubility in water
  solubility: ~50 µg/mL (≈ 128 µM)
[1]
  half-life: 3 min
humans; 300 µg IV bolus
  duration of CBFv augmentation (≥ 2-fold increase in CBFv): 4.0 ± 4.9 min
humans; 500 µg IV bolus
  duration of CBFv augmentation (≥ 2-fold increase in CBFv): 6.9 ± 7.6 min
humans; 500 µg IV bolus (n=3)
  maximal decrease in systolic blood pressure (BP): 8.7 ± 7.6
  maximal increase in heart rate (HR): 18.7 ± 4.0
humans; 3 patients receiving the 500 µg dose
  Adverse events (AEs): No AEs were noted
humans; 10-500 µg IV bolus, nausea, flushing, headache, mild and self-limited
  Adverse events (AEs): infrequent
humans; IV bolus, doses of 100 µg (n=3), 300 µg (n=4) and 500 µg (n=2), mean ± SD
  peak to baseline ratio (CBFv): 3.2 ± 0.6
Healthy volunteers; IV bolus 0.1 to 30 µg/kg
  serious adverse events: no serious adverse events
Healthy volunteers; [3]
  Number of Subjects with AE: Dizziness: 1
  Number of Subjects with AE: Palpitation: 0
  Number of Subjects with AE: Syncope: 1
Healthy volunteers; severe in intensity, 30 µg/kg Supine, 4 subjects per group
  Number of Subjects with AE: Dizziness: 0
[2]; Dose 1 µg/kg, N=3
  Vc: 9.84 (4.12) L
[2]; Dose 3 µg/kg, N=4
  Vc: 13.7 (6.06) L
[2]; Dose 10 µg/kg, N=4
  Vc: 17.9 (6.11) L
[2]; Dose 20 µg/kg, N=8
  Vc: 12.5 (5.83) L
[2]; Dose 30 µg/kg, N=3
  Vc: 15.7 (4.59) L
[2]; Total (doses 1-30 µg/kg), N=22
  Vc: 13.8 (5.67) L
[2]; human, plasma, 1 ug/kg, N=3
  Vd: 69 L
[2]; human, plasma, 1 ug/kg, N=3, read-out: a Half-life
  half-life: 2.14 min
[2]; human, plasma, 1 ug/kg, N=3, read-out: β Half-life
  half-life: 8.93 min
[2]; human, plasma, 1 ug/kg, N=3, read-out: λ Half-life
  half-life: 99 min
[2]; human, plasma, 3 ug/kg, N=4
  Vd: 90 L
[2]; human, plasma, 3 ug/kg, N=4, read-out: a Half-life
  half-life: 3.11 min
[2]; human, plasma, 3 ug/kg, N=4, read-out: β Half-life
  half-life: 17.2 min
[2]; human, plasma, 3 ug/kg, N=4, read-out: λ Half-life
  half-life: 130 min
[2]; human, plasma, 10 ug/kg, N=4
  Vd: 101 L
[2]; human, plasma, 10 ug/kg, N=4, read-out: a Half-life
  half-life: 4.15 min
[2]; human, plasma, 10 ug/kg, N=4, read-out: β Half-life
  half-life: 50.2 min
[2]; human, plasma, 10 ug/kg, N=4, read-out: λ Half-life
  half-life: 132 min
[2]; human, plasma, 20 ug/kg, N=8
  Vd: 75.2 L
[2]; human, plasma, 20 ug/kg, N=8, read-out: a Half-life
  half-life: 4.69 min
[2]; human, plasma, 20 ug/kg, N=8, read-out: β Half-life
  half-life: 32.6 min
[2]; human, plasma, 20 ug/kg, N=8, read-out: λ Half-life
  half-life: 117 min
[2]; human, plasma, 30 ug/kg, N=3
  Vd: 89.6 L
[2]; human, plasma, 30 ug/kg, N=3, read-out: a Half-life
  half-life: 3 min
[2]; human, plasma, 30 ug/kg, N=3, read-out: β Half-life
  half-life: 14 min
[2]; human, plasma, 30 ug/kg, N=3, read-out: λ Half-life
  half-life: 99.4 min
[2]; human, plasma, Total (doses 1-30 µg/kg), N=22
  Vd: 75.3 L
[2]; human, plasma, Total (doses 1-30 µg/kg), N=22, read-out: a Half-life
  half-life: 3.73 min
[2]; human, plasma, Total (doses 1-30 µg/kg), N=22, read-out: β Half-life
  half-life: 27.2 min
[2]; human, plasma, Total (doses 1-30 µg/kg), N=22, read-out: λ Half-life
  half-life: 86.4 min
[2]; male, human, plasma, 1 ug/kg, N=3
  clearance: 737 mL/min
[2]; male, human, plasma, 3 ug/kg, N=4
  clearance: 668 mL/min
[2]; male, human, plasma, 10 ug/kg, N=4
  clearance: 841 mL/min
[2]; male, human, plasma, 20 ug/kg, N=8
  clearance: 743 mL/min
[2]; male, human, plasma, 30 ug/kg, N=3
  clearance: 1020 mL/min
[2]; male, human, plasma, Total (doses 1-30 µg/kg), N=22
  clearance: 768 mL/min
[2]; male, human, plasma, IV bolus, supine, read-out: observed Tmax
  Tmax: 1 to 4 min
Awake dogs; 2.5 µg/kg
  duration for CBF above 2-fold of the baseline: 130 ± 19 s
Awake dogs; Figure 18, mean ± SE, n=6, compared with ADO
  increase in LBF (hind limb blood flow): smaller increase in LBF than ADO
